Assay results as given in paper PMC6411751, “Use of machine learning to identify novel, behaviorally active antagonists of the insect odorant receptor co-receptor (Orco) subunit” (Scientific Reports, 2019).
Structures can show the parent of a compound that is named as a salt.

Legend:
Cqui\Or21 + Cqui\Orco = experiment: Inhibition of heteromeric OR in oocytes (3-methylindole or OLC12 activation); assay type: cell-based, Culex quinquefasciatus; details: 100 µM antagonist; for inhibition of odorant activation: 30 nM 3-methylindole; for antagonism of OLC12 (Orco agonist) activation of heteromeric OR: 3 µM OLC12
Procedure: (§1) An automated parallel electrophysiology system (OpusExpress 6000 A, Molecular Devices) was used to record Orco agonist (OLC12) or odorant induced currents under two-electrode voltage clamp. Oocytes were perfused with ND96 (in mM: 96 NaCl, 2 KCl, 1 CaCl2, 1 MgCl2, 5 HEPES, pH 7.4). DMSO was used to prepare 1 M or 100 mM stock solutions of test compounds, which were then diluted in ND96 on the day of the experiment. Compounds were applied at a flow rate of 1.0 mL/min, with extensive washing in ND96 at 4.6 mL/min between applications. Micropipettes with resistances of 0.2–2.0 MΩ were filled with 3 M KCl. The holding potential was −70 mV. Current responses were filtered (4-pole, Bessel, low pass) at 20 Hz (−3 db) and sampled at 100 Hz. OpusXpress 1.1 software (Molecular Devices) was used to capture and store current responses.
(§2) To measure the ability of Orco antagonists to inhibit odorant activation, oocytes expressing heteromeric ORs (Orco + ORX) were exposed to a 30 sec application of odorant followed by a 20 min wash. Oocytes were then exposed to a 90 sec application of Orco antagonist, immediately followed by a 30 sec co-application of Orco antagonist and odorant. The current response to odorant in the presence of Orco antagonist was compared to the preceding response to odorant alone and represented as a percentage. This value was then normalized to the value obtained when the assay was run in the absence of antagonist (sham).
(§3) Figure S3. Effects of Orco antagonists on heteromeric ORs. […]
heteromeric complexes of odorant specificity subunits and Orco. The Orco antagonists tested were 3-isopropyl-6-methyl-catechol (3 I6 MC), a potent compound from the input training set, and two compounds id e ntified in Fig u re 4 an d Ta b le 1 : 2-tert-butyl-6-methylphenol (B MP ) and linalyl formate (LF) . These compounds were tested for antagonist activity against odorant activation of three ORs from Anopheles gambiae (Agam\Or28 + Agam\Orco, Agam\Or39 + A ga m\Orco, Agam\Or65 + A ga m\Orco), o ne O R fro m Culex quinquefasciatus, the southern house mosquito (Cq u i\Or21 + Cqui\Orco) an d on e O R f ro m Drosophila melanogaster (Dme l\Or35a + Dmel\Orco). Each OR was activated by its cognate odorant agonist applied at an approximate EC50 concentration. […]
SEM (n = 4). […] Statistical significance of the data in each panel was assessed by one-way analysis of variance followed by Dunnett’s multiple comparison test using the pre-normalized values for each antagonist compared to the values obtained in the sham recordings (*, p < 0 .0 5; **, p < 0. 01; ***, p < 0 . 00 1 ).

Agam\Or39 + Agam\Orco = target: T1, Agam\Or39 + Agam\Orco (Anopheles gambiae, UniProt Q7QCC7); experiment: Inhibition of heteromeric OR in oocytes (6-methyl-5-hepten-2-one activation); assay type: cell-based; details: 100 µM antagonist; 10 µM 6-methyl-5-hepten-2-one
T1 construct: expressed in transfected cells; host or cells: Xenopus laevis oocytes
T1 sequence (Q7QCC7 1-478): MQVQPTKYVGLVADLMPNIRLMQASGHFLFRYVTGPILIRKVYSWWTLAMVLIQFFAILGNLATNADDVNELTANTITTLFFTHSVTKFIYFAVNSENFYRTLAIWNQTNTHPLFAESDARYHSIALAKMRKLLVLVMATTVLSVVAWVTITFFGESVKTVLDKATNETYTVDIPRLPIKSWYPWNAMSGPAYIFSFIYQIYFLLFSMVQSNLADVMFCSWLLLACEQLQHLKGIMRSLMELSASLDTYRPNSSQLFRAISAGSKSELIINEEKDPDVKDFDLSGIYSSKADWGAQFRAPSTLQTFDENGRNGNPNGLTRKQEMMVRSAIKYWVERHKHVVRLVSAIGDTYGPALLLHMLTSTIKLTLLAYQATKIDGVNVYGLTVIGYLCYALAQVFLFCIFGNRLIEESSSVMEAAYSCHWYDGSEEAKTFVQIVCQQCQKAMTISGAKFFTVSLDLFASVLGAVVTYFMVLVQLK
Procedure: as §1, §2, §3
heteromeric complexes of odorant specificity subunits and Orco. The Orco antagonists tested were 3-isopropyl-6-methyl-catechol (3 I6 MC), a potent compound from the input training set, and two compounds id e ntified in Fig u re 4 an d Ta b le 1 : 2-tert-butyl-6-methylphenol (B MP ) and linalyl formate (LF) . […]
Statistical significance of the data in each panel was assessed by one-way analysis of variance followed by Dunnett’s […]

Cc1cccc(C(C)(C)C)c1O [BMP, 2-tert-butyl-6-methylphenol] was tested, and the “inhibition of odorant activation” value (Cqui\Or21 + Cqui\Orco) was “able to inhibit odorant activation”, the “antagonism of OLC12 (Orco agonist) activation of heteromeric OR” value (shortened to “antagonism of OLC12”) (Cqui\Or21 + Cqui\Orco) was “able to antagonize OLC12” and the “inhibition of odorant activation” value (Agam\Or39 + Agam\Orco) was “able to inhibit odorant activation”.

In the case of C=CC(C)(CCC=C(C)C)OC=O (stereo not drawn) [LF, linalyl formate], the “inhibition of odorant activation” value (Cqui\Or21 + Cqui\Orco) is reported as “able to inhibit odorant activation”, the “antagonism of OLC12” value (Cqui\Or21 + Cqui\Orco) is reported as “able to antagonize OLC12” and the “inhibition of odorant activation” value (Agam\Or39 + Agam\Orco) is reported as “able to inhibit odorant activation”.

With Cc1ccc(C(C)C)c(O)c1O [3I6MC, 3-isopropyl-6-methyl catechol] the “inhibition of odorant activation” value (Cqui\Or21 + Cqui\Orco) was “could inhibit odorant activation”, the “antagonism of OLC12” value (Cqui\Or21 + Cqui\Orco) was “could antagonize OLC12” and the “inhibition of odorant activation” value (Agam\Or39 + Agam\Orco) was “could inhibit odorant activation”.
